tested on: Cylas formicarius; test: Insecticidal activity in adult Cylas formicarius elegantulus measured per insect after 24 hrs; assay type: functional

Row | SMILES | LD50
1 | C[C@@H]1CC(c2ccoc2)=C[C@]2(C1)C[C@H](C)C(=O)O2 [CAPRARIOLIDE A] | 0.902 mg
2 | C=CCc1ccc(O)c(OC)c1 [EUGENOL] | 0.605 mg
3 | C[C@@H]1CC(c2ccoc2)=C[C@]2(C1)C[C@@H](C)C(=O)O2 [CAPRARIOLIDE B] | 1.102 mg
